Data set [1] is described as follows: Cytotoxicity against mouse Microglia cells assessed as reduction in cell viability. Format: toxicity, cell-based.
For another data set, the system named is Microglia. As to the kind of experiment: Anti-inflammatory activity against mouse Microglia cells assessed as reduction in LPS-induced IL-1beta production. Format: functional, cell-based.

As usually defined, the CC50 is the concentration at which the toxic effect on the cells reaches its halfway point. A word on the pIC50: it is the IC50 on a negative log10 scale, so that one unit is a factor of ten.

SMILES strings stand for the structures. pIC50: −log10 of the molar value.

For the molecule `C=C1[C@@H]2[C@H]3OC(=O)[C@@H](C)[C@@H]3[C@@H](O[C@@H]3O[C@H](CO)[C@@H](O)[C@H](O)[C@H]3O)CC(=C)[C@@H]2C[C@@H]1O`, in data set [1], the CC50 is greater than 100 µM. The pIC50 in the data set on Microglia was 4.35.
For `C=C1[C@@H]2[C@H]3OC(=O)[C@@H](CNC(=O)[C@H](CO)CN4CCC[C@H]4C(=O)O)[C@@H]3[C@@H](O)CC(=C)[C@@H]2C[C@@H]1O`, in that order: greater than 100 µM and 4.20.
For `C=C1[C@@H]2[C@H]3OC(=O)[C@@H](C)[C@@H]3[C@@H](O)CC(=C)[C@@H]2C[C@@H]1O`, in that order: greater than 100 µM and 4.27.
For `C=C1[C@@H]2[C@H]3OC(=O)[C@@H](CN4C=C(C(N)=O)C[C@@H](CO)C4=O)[C@@H]3[C@@H](O)CC(=C)[C@@H]2C[C@@H]1O`, in that order: greater than 100 µM and 4.06.

The record behind these values is ChEMBL document CHEMBL5120761, “Lanicepines A and B, Sesquiterpenes with Amino Acid-Derived Substituents from the Flowering Aerial Parts of Saussurea laniceps” (J Nat Prod, 2022).
